Experiments:
TcdB10463 [1] = target: T1, TcdB10463 (Clostridioides difficile, UniProt P18177); experiment: In vitro cleavage assay of TcdB10463 after pre-treatment with protease inhibitor EPNP; format: biochemical, Clostridium difficile
T1 construct: the TcdB10463, purified from culture supernate of C. difficile, used in the experiments; purchased tgcBIOMICS, Mainz, Germany; host or cells: Clostridium difficile VPI10463 culture supernatant
Method: TcdB10463 was purified as described in Example 1 (D) by means of affinity chromatography with the use of the monoclonal antibody 2CV and then pre-treated either (i) with the protease inhibitor EPNP (10 mM 1,2-epoxy-3-(p-nitrophenoxy)-propane) or (ii)—as control—with buffer (50 mM HEPES, 1M NaCl, 1 mM EDTA, pH 8.0) for 60 minutes at room temperature.
Then an in vitro cleavage assay analogous to Example 1 (A) was carried out. The test batches comprised respectively a volume of 10 μl, and contained respectively 50-100 ng unmarked TcdB10463, 100 μM IP6 and 10 mM tris-HCl pH 8.5. Following the incubation (1 h at room temperature), these test batches were subjected to a SDS-PAGE (10%) and the toxins and toxin fragments were then made visible by means of zinc stain.

TcdB10463 [2] = target: T1, TcdB10463; format: biochemical, Clostridium difficile
TcdB = TcdB (Clostridioides difficile, UniProt P18177); settings: for Start of cell rounding after: CHO cells, TcdB pre-treated with polyclonal antiserum (1:100) 1 h at room temperature; for Neutralising effect of the polyclonal antiserum in the CHO test: antiserum of rabbits immunised with the preparation, dilution 1:100
Method: The CHO test was carried out as follows: In a 96 well microtiter plate, CHO cells (=Chinese hamster ovarial cells) were disseminated (5000 cells/well) and incubated for 16 hours under standard conditions (5% CO2, DMEM F12 supplemented with […] L-glutamins, 5% FCS). The toxins were then introduced to the cells after gradual dilution in growth medium. Dilution stages between 10° and 10^−8 were tested. The cells were incubated for 3 hours under standard conditions. Then the proportion of rounded cells was determined microscopically, by several representative sections of the well being photographed and the elongated and the rounded cells being counted. (See also Moos et al., Meth Enzymol. 2000, 325: 114-125. Reference is made here expressly to the content of this publication).
In order to check the neutralising effect of the polyclonal antiserums, firstly TcdB was pre-treated with polyclonal antiserum (dilution stage 1:100) and incubated for 1 h at room temperature. Then the neutralising effect of the antiserums was checked as described in Example 2 with the aid of the CHO test. The measurement for the neutalising effect of the serums was how long the cells were protected from the cytotoxic effect of the TcdB.

Sequence of TcdB (P18177 whole entry): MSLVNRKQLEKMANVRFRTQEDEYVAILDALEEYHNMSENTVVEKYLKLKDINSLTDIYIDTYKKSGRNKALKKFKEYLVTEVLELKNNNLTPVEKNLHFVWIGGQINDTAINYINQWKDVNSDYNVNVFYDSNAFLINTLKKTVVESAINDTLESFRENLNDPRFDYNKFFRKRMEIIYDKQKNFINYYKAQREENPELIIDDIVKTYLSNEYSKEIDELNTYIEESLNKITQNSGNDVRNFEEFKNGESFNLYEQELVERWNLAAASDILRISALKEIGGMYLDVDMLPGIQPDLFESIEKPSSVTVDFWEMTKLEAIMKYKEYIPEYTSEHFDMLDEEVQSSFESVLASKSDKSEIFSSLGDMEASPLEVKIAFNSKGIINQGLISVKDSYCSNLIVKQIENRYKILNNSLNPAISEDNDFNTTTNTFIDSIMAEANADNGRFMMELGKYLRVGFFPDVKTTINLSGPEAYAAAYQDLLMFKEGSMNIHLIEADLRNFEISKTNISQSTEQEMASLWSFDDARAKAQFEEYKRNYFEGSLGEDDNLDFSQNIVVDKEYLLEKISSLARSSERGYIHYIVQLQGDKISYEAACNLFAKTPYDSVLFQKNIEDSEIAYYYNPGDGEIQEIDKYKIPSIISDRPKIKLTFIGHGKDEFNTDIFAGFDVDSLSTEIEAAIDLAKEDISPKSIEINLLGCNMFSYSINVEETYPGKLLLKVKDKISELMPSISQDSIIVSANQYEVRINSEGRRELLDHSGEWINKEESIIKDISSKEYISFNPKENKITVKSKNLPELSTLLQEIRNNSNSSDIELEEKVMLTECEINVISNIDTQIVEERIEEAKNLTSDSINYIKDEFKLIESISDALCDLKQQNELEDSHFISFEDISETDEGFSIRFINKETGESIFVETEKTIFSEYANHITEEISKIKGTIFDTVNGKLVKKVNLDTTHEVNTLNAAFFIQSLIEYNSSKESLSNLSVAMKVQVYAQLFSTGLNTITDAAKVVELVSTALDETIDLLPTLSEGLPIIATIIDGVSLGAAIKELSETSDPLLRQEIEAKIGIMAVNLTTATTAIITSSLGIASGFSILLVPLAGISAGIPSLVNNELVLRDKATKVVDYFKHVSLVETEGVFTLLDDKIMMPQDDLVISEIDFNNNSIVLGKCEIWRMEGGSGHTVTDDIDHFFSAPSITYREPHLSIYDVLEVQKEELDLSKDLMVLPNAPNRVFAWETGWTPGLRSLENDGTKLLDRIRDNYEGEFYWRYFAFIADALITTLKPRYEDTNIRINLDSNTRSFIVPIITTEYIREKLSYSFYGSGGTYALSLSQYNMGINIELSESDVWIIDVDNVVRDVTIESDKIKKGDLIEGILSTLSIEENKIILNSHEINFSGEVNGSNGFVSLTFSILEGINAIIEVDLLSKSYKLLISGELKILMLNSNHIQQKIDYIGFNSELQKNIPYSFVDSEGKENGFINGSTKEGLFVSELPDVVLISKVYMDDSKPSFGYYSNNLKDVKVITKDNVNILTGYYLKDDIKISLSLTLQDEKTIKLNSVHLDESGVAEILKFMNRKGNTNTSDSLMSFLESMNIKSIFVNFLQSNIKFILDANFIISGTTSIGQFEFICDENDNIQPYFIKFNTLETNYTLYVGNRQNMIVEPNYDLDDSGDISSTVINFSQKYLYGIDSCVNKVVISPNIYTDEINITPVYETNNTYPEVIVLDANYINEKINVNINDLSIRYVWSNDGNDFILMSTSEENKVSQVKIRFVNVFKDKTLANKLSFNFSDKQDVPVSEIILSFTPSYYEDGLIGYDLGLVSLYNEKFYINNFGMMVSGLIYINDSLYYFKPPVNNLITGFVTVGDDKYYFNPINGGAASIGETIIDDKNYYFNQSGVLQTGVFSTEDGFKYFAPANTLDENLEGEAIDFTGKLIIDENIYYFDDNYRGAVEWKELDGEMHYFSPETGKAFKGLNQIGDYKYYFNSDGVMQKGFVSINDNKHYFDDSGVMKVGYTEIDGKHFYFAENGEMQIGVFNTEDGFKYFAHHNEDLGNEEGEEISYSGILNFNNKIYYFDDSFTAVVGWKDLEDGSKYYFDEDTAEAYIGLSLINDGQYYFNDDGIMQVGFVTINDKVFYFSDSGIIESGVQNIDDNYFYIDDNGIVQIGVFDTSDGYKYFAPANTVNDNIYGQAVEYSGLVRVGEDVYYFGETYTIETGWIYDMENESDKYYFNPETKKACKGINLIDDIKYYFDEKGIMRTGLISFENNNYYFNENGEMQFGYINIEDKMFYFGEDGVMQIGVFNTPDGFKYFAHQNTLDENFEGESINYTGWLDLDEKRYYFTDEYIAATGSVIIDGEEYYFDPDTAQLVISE
T1 sequence (P18177 whole entry): as above

## O=[N+]([O-])c1ccc(OCC2CO2)cc1 (centres unmarked) [EPNP, 1,2-epoxy-3-(p-nitrophenoxy)-propane]
TcdB10463 [1]; TcdB10463 pre-treated with EPNP, after incubation with IP6 (FIG. 2, Line 2)
  63 kD band in SDS-PAGE: only weakly formed
TcdB10463 [1]; pre-treatment with 10 mM EPNP 60 minutes, then 100 μM IP6 1 h at room temperature
  Proteolytic activity (protease activity) of TcdB10463: almost completely inhibited

## O=P(O)(O)O[C@H]1[C@H](OP(=O)(O)O)[C@@H](OP(=O)(O)O)[C@H](OP(=O)(O)O)[C@@H](OP(=O)(O)O)[C@H]1OP(=O)(O)O [IP 1, 2, 3, 4, 5, 6, inositol hexaphosphate]
TcdB10463 [2]
  Cleavage activity (initiator activity) amongst the tested inositol phosphates: strongest cleavage activity
  Cleavage of the holotoxin into 63 kDa and 207 kDa fragments: complete cleavage

B1: Preparation C: TcdB fragment AS1601-1716 (DSG motif) (protein, UniProt P18177 1601-1716, looked up, fragment)
chain: NIKFILDANFIISGTTSIGQFEFICDENDNIQPYFIKFNTLETNYTLYVGNRQNMIVEPNYDLDDSGDISSTVINFSQKYLYGIDSCVNKVVISPNIYTDEINITPVYETNNTYPE
TcdB
  Start of cell rounding after: 12 to 15 h
  Neutralising effect of the polyclonal antiserum in the CHO test: smaller neutralising effect

B2: Preparation D: TcdB fragment AS1508-1601 (part of the inosine-binding motif) (protein, UniProt P18177 1508-1601, looked up, fragment)
chain: YYSNNLKDVKVITKDNVNILTGYYLKDDIKISLSLTLQDEKTIKLNSVHLDESGVAEILKFMNRKGNTNTSDSLMSFLESMNIKSIFVNFLQSN
TcdB
  Start of cell rounding after: 9 to 12 h
  Neutralising effect of the polyclonal antiserum in the CHO test: smaller neutralising effect

From US9066961B2, “Medicament for LCT poisoning” (JOHANNES GUTENBERG-UN[…], priority 2006, dated 2015)
